The text below walks through data of patent US20110257168A1, “DERIVATIVES OF OXABISPIDINE AS NEURONAL NICOTINIC ACETYLCHOLINE RECEPTOR LIGANDS” (Targacept, Inc., priority 2008, published 2011).

What is called Ki is the equilibrium dissociation constant of an inhibitor or competing ligand from its target.

Where two headings read alike, the source gives them in different places.

One experiment has as its target T1, Rat α4β2 (Rattus norvegicus, UniProt P09483+P12390).
T1 construct: Preparation of membranes from rat tissues; Rat cortices were obtained from Analytical Biological Services; tissue Analytical Biological Services, Incorporated (ABS, Wilmington, Del.); host or cells: rat cortex membranes (female Sprague-Dawley)
Briefly: Competition binding to rat α4β2 receptors in membrane preparations. Here is the method:
(§1) Preparation of membranes from rat tissues. Rat cortices were obtained from Analytical Biological Services, Incorporated (ABS, Wilmington, Del.). Tissues were dissected from female Sprague-Dawley rats, frozen and shipped on dry ice. Tissues were stored at −20° C. until needed for membrane preparation. Cortices from 10 rats were pooled and homogenized by Polytron (Kinematica GmbH, Switzerland) in 10 volumes (weight:volume) of ice-cold preparative buffer (KCl, 11 mM; KH2PO4, 6 mM; NaCl 137 mM; Na2HPO4 8 mM; HEPES (free acid), 20 mM; iodoacetamide, 5 mM; EDTA, 1.5 mM; 0.1 mM PMSF pH 7.4). The resulting homogenate was centrifuged at 40,000 g for 20 minutes at 4° C. and the resulting pellet was resuspended in 20 volumes of ice-cold water. After 60-minute incubation at 4° C., a new pellet was collected by centrifugation at 40,000 g for 20 minutes at 4° C. The final pellet was resuspended in preparative buffer and stored at −20° C. On the day of the assay, tissue was thawed, centrifuged at 40,000 g for 20 minutes and then resuspended in PBS (Dulbecco's Phosphate Buffered Saline, Life Technologies, pH 7.4) to a final concentration of 2-3 mg protein/mL. Protein concentrations were determined using the Pierce BCA Protein Assay kit (Pierce Biotechnology, Rockford, Ill.), with bovine serum albumin as the standard. Preparation of membranes from clonal cell lines. Cells were harvested in ice-cold PBS, pH 7.4, then homogenized with a polytron (Brinkmann Instruments, Westbury, N.Y.). Homogenates were centrifuged at 40,000 g for 20 minutes (4° C.). The pellet was resuspended in PBS and protein concentration determined using the Pierce BCA Protein Assay kit (Pierce Biotechnology, Rockford, Ill.).
(§2) Competition binding to receptors in membrane preparations. Binding to nicotinic receptors was assayed on membranes using standard methods adapted from published procedures (Lippiello and Fernandes, 1986; Davies et al., 1999). In brief, membranes were reconstituted from frozen stocks (approximately 0.2 mg protein) and incubated for 2 h on ice in […] assay buffer (PBS) in the presence of competitor compound (0.001 nM to […]) and radioligand. [^3H]-nicotine (L-(−)-[N-methyl-3H]-nicotine, 69.5 Ci/mmol, Perkin-Elmer Life Sciences) was used for human α4β2 binding studies. [^3H]-epibatidine (52 Ci/mmol, Perkin-Elmer Life Sciences) was used for binding studies at the other receptor subtypes. Incubation was terminated by rapid filtration on a multimanifold tissue harvester (Brandel, Gaithersburg, Md.) using GF/B filters presoaked in 0.33% polyethyleneimine (w/v) to reduce non-specific binding. Filters were washed 3 times and the radioactivity retained was determined by liquid scintillation counting.
(§3) Binding data analysis. Binding data were expressed as percent total control binding. Replicates for each point were averaged and plotted against the log of drug concentration. The IC50 (concentration of the compound that produces 50% inhibition of binding) was determined by least squares non-linear regression using GraphPad Prism software (GraphPAD, San Diego, Calif.). Ki was calculated using the Cheng-Prusoff equation (Cheng and Prusoff, 1973).

In another experiment the target is human α4β2 (Homo sapiens, UniProt P17787+P43681). Briefly: Competition binding to human α4β2 receptors in membrane preparations. The method, then:
(§4) SH-EP1/human α4β2 (Eaton et al., 2003), SH-EP1/human α4β4 (Gentry et al., 2003), SH-EP1/α6β3β4α5 (Grinevich et al., 2005), TE671/RD and SH-SY5Y cell lines (obtained from Dr. Ron Lukas, Barrow Neurological Institute) were maintained in proliferative growth phase in Dulbecco's modified Eagle's medium (Gibco/BRL) with 10% horse serum (Gibco BRL), 5% fetal bovine serum (HyClone, Logan Utah), 1 mM sodium pyruvate, 4 mM L-glutamine. For maintenance of stable transfectants, the α4β2 and α4β4 cell media was supplemented with 0.25 mg/mL zeocin and 0.13 mg/mL hygromycin B. Selection was maintained for the α6β3β4α5 cells with 0.25 mg/mL of zeocin, 0.13 mg/mL of hygromycin B, 0.4 mg/mL of geneticin, and 0.2 mg/mL of blasticidin. HEK/human α7/RIC3 cells (obtained from J. Lindstrom, U. Pennsylvania) were maintained in proliferative growth phase in Dulbecco's modified Eagle's medium (Gibco/BRL) with 10% fetal bovine serum (HyClone, Logan Utah), 1 mM sodium pyruvate, 4 mM L-glutamine, 0.4 mg/mL geneticin; 0.2 mg/ml hygromycin B.
as §1, §2
(§5) Binding data analysis. Binding data were expressed as percent total control binding. Replicates for each point were averaged and plotted against the log of drug concentration. […]

A further experiment concerns the target T2, Rat α7 (Rattus norvegicus, UniProt Q05941).
T2 construct: Preparation of membranes from rat tissues; Rat cortices were obtained from Analytical Biological Services; tissue Analytical Biological Services, Incorporated (ABS, Wilmington, Del.); host or cells: rat brain membranes (only cortex is described)
Briefly: Competition binding to rat α7 receptors in membrane preparations. Here is the method:
as §1, §2, §3

The next experiment has as its target T3, Human α7 (Homo sapiens, UniProt P36544).
T3 construct: host or cells: HEK cells co-expressing RIC3
Description: Competition binding to human α7 receptors in membrane preparations. The method, then: as §4, §1, §2, §5

The subject of a further experiment is male ICR mice. Briefly: Formalin test (2.5%) in mice. The experiment is classed as in vivo. The method, then:
The formalin test in mice is a valid and reliable model of nociception and is sensitive for various classes of analgesic drugs. The noxious stimulus is an injection of dilute formalin (1% in saline) under the skin of the dorsal surface of the right hindpaw. The response is the amount of time the animals spend licking the injected paw. Two distinct periods of high licking activity can be identified, an early phase lasting the first 5 min and a late phase lasting from 20 to 30 min after the injection of formalin. See, Hunskaar et al., Pain, 1987, July; 30(1):103-14, incorporated by reference with regard to the test.
A formalin test was carried out in an open Plexiglas cage, with a mirror placed under the floor to allow an unobstructed view of the paws. Mice were allowed to acclimate for 15 min in the test cage before formalin injection. Each animal was injected with 20 μl of 2.5% formalin in the intraplantar region of the right hindpaw. Mice were then observed 0-5 min (Phase 1) and 20-45 min (Phase 2) post-formalin, and the amount of time spent (expressed in sec) licking the injected paw was recorded. Compound A or vehicle were injected s.c. 15 min before the formalin injection.
FIG. 1 illustrates the effects of Compound A in the formalin test (2.5%) in male ICR mice. As described, subject mice were pretreated with an s.c. injection of Compound A and 15 minutes later received formalin ipl. […] The lowest active dose was 3 mg/kg.

[1] abbreviates: membranes, [3H]-nicotine competition, Ki by Cheng-Prusoff, read-out: human α4β2 Ki.
[2] abbreviates: membranes, [3H]-epibatidine competition, Ki by Cheng-Prusoff, read-out: Rat α7 Ki.
[3] abbreviates: membranes, [3H]-epibatidine competition, Ki by Cheng-Prusoff, read-out: Human α7 Ki.
Setting [4] is: membranes, [3H]-epibatidine competition, Ki by Cheng-Prusoff, read-out: Rat α4β2 Ki.

As to `COc1cncc(N2CC3CNCC(C2)O3)c1` [3-(5-methoxypyridin-3-yl)-9-oxa-3,7-diazabicyclo[3.3.1]nonane], the inhibitory constant (Ki) at Rat α4β2 came to 1.9 nM; on human α4β2 (setting [1]) it was 0.9 nM; at Rat α7 (setting [2]), 560 nM; on Human α7 (setting [3]), 350 nM.
`Fc1cncc(N2CC3CNCC(C2)O3)c1` [Compound A, 3-(5-fluoropyridin-3-yl)-9-oxa-3,7-diazabicyclo[3.3.1]nonane]: the Ki on Rat α4β2 is 1.3 nM; on human α4β2 (setting [1]), 1.8 nM; at Rat α7, 36 nM; on Human α7, 76 nM. In addition, the “nociceptive behavior (time licking the injected paw), Phase 1” value in the experiment on male ICR mice (0-5 min post-formalin, s.c. 15 min before formalin, F(1,35)=41.8, P<0.0001) is reported as “significantly reduced”. In addition, the “nociceptive behavior (time licking the injected paw), Phase 2” value with male ICR mice (20-45 min post-formalin, s.c. 15 min before formalin, F(1,35)=24.8, P<0.0001) is reported as “significantly reduced”. The same molecule came in with a lowest active dose with male ICR mice (formalin test, s.c. administration) of 3 mg/kg. Besides, in the experiment with male ICR mice (mecamylamine 2 mg/kg), the “effects in formalin test in presence of mecamylamine” value is reported as “blocked”.
For the molecule `Clc1cncc(N2CC3CNCC(C2)O3)c1` [3-(5-chloropyridin-3-yl)-9-oxa-3,7-diazabicydo[3.3.1]nonane], the inhibitory constant (Ki) at Rat α4β2 (setting [4]) amounted to 2.1 nM; at human α4β2 it was 1 nM; on Rat α7 (setting [2]), 370 nM; at Human α7 (setting [3]) it was 180 nM.
Take `Clc1cc(N2CC3CNCC(C2)O3)cnc1Cl` [3-(5,6-dichloropyridin-3-yl)-9-oxa-3,7-diazabicyclo[3.3.1]nonane]: the inhibition constant (Ki) on Rat α4β2 (setting [4]) is 0.7 nM; at human α4β2, 0.3 nM; on Rat α7 (setting [2]), 84 nM; on Human α7 (setting [3]), 39 nM.
For the molecule `Fc1ccc(N2CC3CNCC(C2)O3)cn1` [3-(6-fluoropyridin-3-yl)-9-oxa-3,7-diazabicyclo[3.3.1]nonane], the Ki was found to be 16 nM at Rat α4β2, 2.5 nM on human α4β2 (setting [1]), 1400 nM on Rat α7 (setting [2]) and 180 nM at Human α7 (setting [3]).
The like results for `c1cncc(N2CC3CNCC(C2)O3)c1` [3-(pyridin-3-yl)-9-oxa-3,7-diazabicyclo[3.3.1]nonane] were, in that order, 3.9 nM, 1.1 nM, 650 nM and 670 nM.
Consider `Cc1cncc(N2CC3CNCC(C2)O3)c1` [3-(5-methylpyridin-3-yl)-9-oxa-3,7-diazabicydo[3.3.1]nonane], for which the inhibition constant Ki on Rat α4β2 was 0.5 nM; on human α4β2 (setting [1]) it was 0.3 nM; on Rat α7 (setting [2]), 200 nM; on Human α7 (setting [3]), 4500 nM.
For `Clc1ccc(Oc2cncc(N3CC4CNCC(C3)O4)c2)cc1Cl` [3-(5-(3,4-dichlorophenoxy)pyridin-3-yl)-9-oxa-3,7-diazabicyclo[3.3.1]nonane] the same measures were 11 nM, 3.5 nM, 210 nM and 360 nM.
For `c1ncc(N2CC3CNCC(C2)O3)cn1` [3-(pyrimidin-5-yl)-9-oxa-3,7-diazabicyclo[3.3.1]nonane] the same measures were 8 nM, 7.6 nM, 3200 nM and 2900 nM.
The like results for `Clc1ccc(N2CC3CNCC(C2)O3)cn1` [3-(6-chloropyridin-3-yl)-9-oxa-3,7-diazabicydo[3.3.1]nonane] were, in that order, 5.2 nM, 1.2 nM, 210 nM and 240 nM.
